Source: patent publication US9321737B2, “CDK8-CDK19 selective inhibitors and their use in anti-metastatic and chemopreventative methods for cancer” (SENEX BIOTECHNOLOGY INC, priority 2012, dated 2016)

Columns and labels:
[1] = tested on: MDA-MB-468 TNBC tumor invasion; test: Histological analysis of MDA-MB-468 tumor invasion (H&E); type: in vivo, female nude mice; settings: tumors from FIG. 15B experiment
Description: At the end of the experiment shown in FIG. 15B, mice were sacrificed, tumors were removed, formalin fixed, sectioned and processed for histological analysis after H&E staining.

MDA-MB-231 = MDA-MB-231 orthotopic TNBC xenograft; type: in vivo, female SCID mice; settings: 1 mg/kg doxorubicin single dose, three rounds
Experimental: Once tumors were formed, mice were randomized into 4 cohorts (n=10) and treated, at 7-10 day intervals, with three rounds of: vehicle (5 daily doses), 1 mg/kg doxorubicin (single dose), 40 mg/kg Senexin B (5 daily doses) or doxorubicin (single dose)+Senexin B (5 daily doses).

MDA-MB-468 = MDA-MB-468 TNBC xenograft model; type: in vivo, female nude mice; settings: 40 mg/kg Senexin B daily i.p.; 4 mg/kg doxorubicin two injections two weeks apart
Experimental: Female nude mice were inoculated with MDA-MB-468 cells, and once palpable tumors were formed, mice were randomized into 4 groups, treated daily i.p. with vehicle alone (n=12), 40 mg/kg Senexin B, two injections with 4 mg/kg doxorubicin two weeks apart, or doxorubicin combined with Senexin B (n=8 in each of the latter groups).

Water solubility = type: physicochemical; settings: 40° C., 30 min, no pellet after centrifugation
Experimental: (§1) The compounds were also tested for solubility in 20% propylene glycol and in water, as follows. Compounds (dry powder) were dissolved in 20% propylene glycol at a concentration of 1 mM at a temperature of 40° C. with occasional vortexing. After 30 min, the solution was centrifuged at 10,000×g for 5 min. Serial dilutions of the cleared supernatant were prepared and used to measure the compound concentrations through OD reading, relative to 1 μM standard solution of the same compound. The results of the measurement were expressed as % solubility of the compound at 1 mM in 20% propylene glycol. To determine water solubility, the compounds (dry powder) were initially dissolved in water at a concentration of 100 mM at a temperature of 40° C. with occasional vortexing. After 30 min, the solution was centrifuged at 10,000×g for 5 min, and the formation of an insoluble pellet was monitored. At subsequent steps, the compound was attempted to be dissolved at lower concentrations, until no pellet was observed after centrifugation, indicating complete solution of the compound.

[2] = Solubility in 20% propylene glycol; type: physicochemical; settings: 1 mM, 40° C., 30 min, centrifuged, OD reading
Experimental: as §1

[3] = tested on: CDKI pathway (CMV promoter stimulation by p21) in HT1080 fibrosarcoma cells; test: CDKI pathway inhibition cellular assay (CMV-GFP induction by IPTG-inducible p21); type: cell-based, human; settings: IPTG-induced p21, CMV-GFP / Hoechst 33342, read-out: Cell-based Assay EC50
Experimental: The compounds described below are shown in Table 1 and the structures of some novel compounds according to the invention are shown in FIG. 1. […] All the compounds were tested for the ability to inhibit the CDKI pathway in a cellular assay described in our previous patent application PCT/US06/01046. This assay is based on the induction of green fluorescent protein (GFP) expression from the cytomegalovirus (CMV) promoter in human HT1080 fibrosarcoma cells that express CDKI p21 from an isopropyl-β-thio-galactoside (IPTG)-inducible promoter. The compound activity as a CDKI pathway inhibitor is measured by its ability to prevent the stimulation of the CMV promoter upon the addition of p21-inducing IPTG. CMV promoter activity is measured by the ratio of GFP fluorescence to the relative cell number, as determined by staining cellular DNA with Hoechst 33342.

Structure (SMILES) | invasive or non-invasive tumor growth [1] | lower body weight than control mice (MDA-MB-231) | tumor growth (tumor volumes after 30 days of treatment) (MDA-MB-468) | Water Solubility (Water solubility) | % solubility at 1 mM in 20% propylene glycol [2] [%] | EC50 [3] [µM]
COc1cccc2c1C(=O)c1c(O)c3c(c(O)c1C2=O)C[C@@](O)(C(=O)CO)C[C@@H]3O[C@H]1C[C@H](N)[C@H](O)[C@H](C)O1 [doxorubicin, reference compound] | displayed invasive growth | about 15% | significantly slowed down the tumor growth | – | – | –
CN1CCN(C(=O)c2ccc(CCNc3ncnc4ccc(C#N)cc34)cc2)CC1 [SNX2-1-153] | – | – | – | Soluble at 10 mM | 100 | 5.21
COCCNC(=O)c1ccc(CCNc2ncnc3ccc(C#N)cc23)cc1 [SNX2-1-150] | – | – | – | Soluble at 10 mM | 100 | 2.2
N#Cc1ccc2ncnc(NCCc3ccc(C(=O)N4CCCCC4)cc3)c2c1 [SNX2-1-152] | – | – | – | – | 100 | 3.83
CN(C)CCNC(=O)c1ccc(CCNc2ncnc3ccc(C#N)cc23)cc1 [SNX2-1-155] | – | – | – | Soluble at 10 mM | 100 | 4.57
